The assay relates to BDF1 mice, B16 melanoma s.c., survival/tumor T/C. Nature of the assay: NCI In Vivo Anticancer Drug Screen. Data for tumor model B16 Melanoma (subcutaneous) in B6D2F1 (BDF1) mice. The procedure:
The antitumor activity of compounds was measured in mice bearing transplantable tumors. Survival or tumor size were measured and the results are expressed as the measurement made in the treated group (T) divided by the measurement made in the vehicle treated control group (C). The tumor model used in this assay is B16 Melanoma (subcutaneous) in B6D2F1 (BDF1) mice

The mark [1] stands for this setting: endpoint: median survival time, dose: 4.0 mg/kg/injection, schedule: Q01DX009 (ip), vehicle: saline, higher = longer survival.
[2] abbreviates: endpoint: median survival time, dose: 16.0 mg/kg/injection, schedule: Q01DX009 (ip), vehicle: saline, higher = longer survival.
[3] abbreviates: endpoint: median survival time, dose: 8.0 mg/kg/injection, schedule: Q01DX009 (ip), vehicle: saline, higher = longer survival.
Setting [4] is: endpoint: median survival time, dose: 2.5 mg/kg/injection, schedule: Q01DX009 (ip), vehicle: saline, higher = longer survival.
[5] abbreviates: endpoint: median survival time, dose: 10.0 mg/kg/injection, schedule: Q01DX009 (ip), vehicle: saline, higher = longer survival.

“And” between values parts separate entries of the source, which are not always exact repeats. Identical values can stand only once. Results filed as inconclusive are left out.

In the case of `O=NN(CCCl)C(=O)NC1CCCCC1`, the T/C under setting [1] is 115 % of control; the T/C (endpoint: median survival time, dose: 5.18 mg/kg/injection, schedule: Q01DX007 (ip), vehicle: Klucel (hydroxypropylcellulose) (HPC), higher = longer survival) was 103 % of control; the T/C (endpoint: median survival time, dose: 8.64 mg/kg/injection, schedule: Q01DX007 (ip), vehicle: Klucel (hydroxypropylcellulose) (HPC), higher = longer survival) was 88 % of control; the T/C (endpoint: median survival time, dose: 12.0 mg/kg/injection, schedule: Q01DX001 (ip), vehicle: Klucel (hydroxypropylcellulose) (HPC), higher = longer survival) was 111 % of control and 112 % of control and 116 % of control; the T/C (endpoint: median survival time, dose: 14.4 mg/kg/injection, schedule: Q01DX007 (ip), vehicle: Klucel (hydroxypropylcellulose) (HPC), higher = longer survival) is 124 % of control; the T/C under setting [2] is 175 % of control. The T/C is, setting by setting: (endpoint: median survival time, dose: 32.0 mg/kg/injection, schedule: Q01DX009 (ip), vehicle: saline, higher = longer survival) 105 % of control; (endpoint: median tumor weight (est.), dose: 8.0 mg/kg/injection, schedule: Q01DX009 (ip), vehicle: Klucel (hydroxypropylcellulose) (HPC), higher = larger tumour) 28 % of control and 47 % of control; (endpoint: median tumor weight (est.), dose: 12.5 mg/kg/injection, schedule: Q01DX001 (ip), vehicle: Klucel (hydroxypropylcellulose) (HPC), higher = larger tumour) 96 % of control and 110 % of control; (endpoint: median tumor weight (est.), dose: 16.0 mg/kg/injection, schedule: Q01DX009 (ip), vehicle: Klucel (hydroxypropylcellulose) (HPC), higher = larger tumour) 27 % of control; (endpoint: median tumor weight (est.), dose: 50.0 mg/kg/injection, schedule: Q01DX001 (ip), vehicle: Klucel (hydroxypropylcellulose) (HPC), higher = larger tumour) 21 % of control; (endpoint: median tumor weight (est.), dose: 100.0 mg/kg/injection, schedule: Q01DX001 (ip), vehicle: Klucel (hydroxypropylcellulose) (HPC), higher = larger tumour) 38 % of control.
In the case of `Cc1c2ccncc2c(C)c2c1[nH]c1ccccc12`, the T/C runs as follows: (endpoint: median survival time, dose: 25.0 mg/kg/injection, schedule: Q04DX003 (ip), vehicle: Klucel (hydroxypropylcellulose) (HPC), higher = longer survival) 105 % of control; (endpoint: median survival time, dose: 50.0 mg/kg/injection, schedule: Q04DX003 (ip), vehicle: Klucel (hydroxypropylcellulose) (HPC), higher = longer survival) 98 % of control; (endpoint: median survival time, dose: 82.0 mg/kg/injection, schedule: Q04DX003 (ip), vehicle: saline with Tween-80, higher = longer survival) 122 % of control; (endpoint: median survival time, dose: 400.0 mg/kg/injection, schedule: Q01DX001 (ip), vehicle: saline with Tween-80, higher = longer survival) 112 % of control; (endpoint: median survival time, dose: 900.0 mg/kg/injection, schedule: Q01DX001 (ip), vehicle: saline with Tween-80, higher = longer survival) 114 % of control.
Regarding `O=C1C=CC(=O)O1` (tested in a mixture with another compound), the T/C was 92 % of control (endpoint: median survival time, dose: 6.25 mg/kg/injection, schedule: Q01DX009 (ip), vehicle: other, higher = longer survival); 101 % of control (endpoint: median survival time, dose: 12.5 mg/kg/injection, schedule: Q01DX009 (ip), vehicle: other, higher = longer survival); 120 % of control (endpoint: median survival time, dose: 25.0 mg/kg/injection, schedule: Q01DX009 (ip), vehicle: other, higher = longer survival).
As to `CCCCC[C@H](O)/C=C/[C@@H]1[C@@H](C/C=C\CCCC(=O)O)[C@@H](O)C[C@H]1O`, the T/C runs as follows: (endpoint: median survival time, dose: 2.5 mg/kg/injection, schedule: Q04DX002 (ip), vehicle: saline with Tween-80, higher = longer survival) 89 % of control; (endpoint: median survival time, dose: 5.0 mg/kg/injection, schedule: Q04DX002 (ip), vehicle: saline with Tween-80, higher = longer survival) 110 % of control; (endpoint: median survival time, dose: 10.0 mg/kg/injection, schedule: Q04DX002 (ip), vehicle: saline with Tween-80, higher = longer survival) 106 % of control; (endpoint: median survival time, dose: 20.0 mg/kg/injection, schedule: Q04DX002 (ip), vehicle: saline with Tween-80, higher = longer survival) 93 % of control; (endpoint: median survival time, dose: 40.0 mg/kg/injection, schedule: Q04DX002 (ip), vehicle: saline with Tween-80, higher = longer survival) 114 % of control; (endpoint: median survival time, dose: 80.0 mg/kg/injection, schedule: Q04DX002 (ip), vehicle: saline with Tween-80, higher = longer survival) 86 % of control. In addition, the T/C (endpoint: median survival time, dose: 160.0 mg/kg/injection, schedule: Q04DX002 (ip), vehicle: saline with Tween-80, higher = longer survival) is 90 % of control.
As for `CC1(C)N=C(N)N=C(N)N1c1ccc(CCCCc2ccc(Cl)c(S(=O)(=O)F)c2)c(Cl)c1`, the T/C was 119 % of control under setting [3]; 110 % of control (endpoint: median survival time, dose: 12.0 mg/kg/injection, schedule: Q01DX009 (ip), vehicle: saline, higher = longer survival); 107 % of control (endpoint: median survival time, dose: 18.0 mg/kg/injection, schedule: Q01DX009 (ip), vehicle: saline, higher = longer survival); 94 % of control (endpoint: median survival time, dose: 27.0 mg/kg/injection, schedule: Q01DX009 (ip), vehicle: saline, higher = longer survival).
With `NNC(=O)c1ccncc1`, the T/C is 116 % of control (endpoint: median survival time, dose: 64.0 mg/kg/injection, schedule: Q01DX009 (ip), vehicle: saline, higher = longer survival) and 88 % of control (endpoint: median survival time, dose: 128.0 mg/kg/injection, schedule: Q01DX009 (ip), vehicle: saline, higher = longer survival).
Take `Nc1nc([Se])c2ncn(C3OC(CO)C(O)C3O)c2n1` (centres undefined): the T/C runs as follows: (endpoint: median survival time, dose: 1.0 mg/kg/injection, schedule: Q01DX009 (ip), vehicle: saline, higher = longer survival) 108 % of control; (endpoint: median survival time, dose: 2.0 mg/kg/injection, schedule: Q01DX009 (ip), vehicle: saline, higher = longer survival) 98 % of control and 121 % of control; under setting [1], 121 % of control; under setting [3], 108 % of control; under setting [2], 111 % of control.
For `CN[C@H]1CCc2cc(OC)c(OC)c(OC)c2-c2ccc(OC)c(=O)cc21`, the T/C by setting is: (endpoint: median survival time, dose: 1.25 mg/kg/injection, schedule: Q01DX009 (ip), vehicle: saline, higher = longer survival) 109 % of control; under setting [4], 95 % of control; under setting [5], 111 % of control.
For the compound `Cn1c(=O)[nH]c2nncnc2c1=O`, the T/C reads like this: (endpoint: median survival time, dose: 0.2 mg/kg/injection, schedule: Q01DX009 (ip), vehicle: water, higher = longer survival) 103 % of control; (endpoint: median survival time, dose: 0.4 mg/kg/injection, schedule: Q01DX009 (ip), vehicle: water, higher = longer survival) 119 % of control; (endpoint: median survival time, dose: 0.8 mg/kg/injection, schedule: Q01DX009 (ip), vehicle: water, higher = longer survival) 99 % of control; (endpoint: median survival time, dose: 3.12 mg/kg/injection, schedule: Q01DX009 (ip), vehicle: water, higher = longer survival) 98 % of control and 103 % of control; (endpoint: median survival time, dose: 6.25 mg/kg/injection, schedule: Q01DX009 (ip), vehicle: water, higher = longer survival) 117 % of control; (endpoint: median survival time, dose: 12.5 mg/kg/injection, schedule: Q01DX009 (ip), vehicle: water, higher = longer survival) 96 % of control and 99 % of control. Moreover, the T/C (endpoint: median survival time, dose: 25.0 mg/kg/injection, schedule: Q01DX009 (ip), vehicle: water, higher = longer survival) was 114 % of control.
As for `C=CCN1/C(=C/C=C\c2sc3ccccc3[n+]2CC=C)Sc2ccccc21`, the T/C (endpoint: median survival time, dose: 125.0 micrograms/kg/injection, schedule: Q01DX009 (ip), vehicle: suspension in saline, higher = longer survival) was 121 % of control.
`CSCCC(N)C(=O)O` (centres undefined): the T/C is, setting by setting: (endpoint: median survival time, dose: 40.0 mg/kg/injection, schedule: Q01DX009 (ip), vehicle: Klucel (hydroxypropylcellulose) (HPC), higher = longer survival) 108 % of control; (endpoint: median survival time, dose: 80.0 mg/kg/injection, schedule: Q01DX009 (ip), vehicle: Klucel (hydroxypropylcellulose) (HPC), higher = longer survival) 97 % of control; (endpoint: median survival time, dose: 160.0 mg/kg/injection, schedule: Q01DX009 (ip), vehicle: Klucel (hydroxypropylcellulose) (HPC), higher = longer survival) 97 % of control; (endpoint: median survival time, dose: 320.0 mg/kg/injection, schedule: Q01DX009 (ip), vehicle: Klucel (hydroxypropylcellulose) (HPC), higher = longer survival) 122 % of control.
As for `Cn1c(CCCC(=O)O)nc2cc(N(CCCl)CCCl)ccc21`, the T/C was 120 % of control under setting [4]; 98 % of control (endpoint: median survival time, dose: 5.0 mg/kg/injection, schedule: Q01DX009 (ip), vehicle: saline, higher = longer survival); 96 % of control under setting [5].
For `O=[N+]([O-])c1ccc(/C=N/c2ncc(Br)s2)o1`, the T/C runs as follows: (endpoint: median survival time, dose: 1.56 mg/kg/injection, schedule: Q01DX009 (ip), vehicle: Klucel (hydroxypropylcellulose) (HPC), higher = longer survival) 123 % of control; (endpoint: median survival time, dose: 3.12 mg/kg/injection, schedule: Q01DX009 (ip), vehicle: Klucel (hydroxypropylcellulose) (HPC), higher = longer survival) 92 % of control; (endpoint: median survival time, dose: 3.13 mg/kg/injection, schedule: Q01DX009 (ip), vehicle: Klucel (hydroxypropylcellulose) (HPC), higher = longer survival) 121 % of control; (endpoint: median survival time, dose: 6.25 mg/kg/injection, schedule: Q01DX009 (ip), vehicle: Klucel (hydroxypropylcellulose) (HPC), higher = longer survival) 110 % of control and 111 % of control; (endpoint: median survival time, dose: 12.5 mg/kg/injection, schedule: Q01DX009 (ip), vehicle: Klucel (hydroxypropylcellulose) (HPC), higher = longer survival) 114 % of control.
As to `COc1cccc2c1C(=O)c1c(O)c3c(c(O)c1C2=O)C[C@@](O)(C(=O)COC(=O)Cc1ccccc1)C[C@@H]3OC1CC(N)C(O)C(C)O1` (some centres undefined), the T/C by setting is: (endpoint: median survival time, dose: 0.5 mg/kg/injection, schedule: Q01DX009 (ip), vehicle: saline with Tween-80, higher = longer survival) 86 % of control; (endpoint: median survival time, dose: 1.0 mg/kg/injection, schedule: Q01DX009 (ip), vehicle: saline with Tween-80, higher = longer survival) 88 % of control; (endpoint: median survival time, dose: 2.0 mg/kg/injection, schedule: Q01DX009 (ip), vehicle: saline with Tween-80, higher = longer survival) 94 % of control.

For the origin of these results see PubChem BioAssay AID194 (DTP/NCI, 2004).
